Reference: publication PMC6561471 (The Lancet. Oncology, 2018)
Entries after “also recorded” stand apart in the source; their conditions may differ.

Columns and labels:
[1] = test system: patients with recurrent or metastatic HNSCC; test: phase 1b dose escalation; format: in vivo; conditions: with fixed dose of cetuximab; doses 200-800 mg/day; assessed in cycle 1
[2] = suspension formulation compared with tablet; cited from earlier work
[3] = test system: nasopharyngeal cancer; conditions: pazopanib tablet formulation 800 mg/day, monotherapy; cited from earlier work
[4] = test system: patients with recurrent or metastatic HNSCC; test: adverse events graded by NCI-CTCAE version 4.0, all cycles of treatment
[5] = test system: recurrent or metastatic HNSCC; conditions: single-arm study; cited from earlier work
[6] = test system: recurrent or metastatic HNSCC; conditions: first-line treatment; cited from earlier work

In the case of `Cc1ccc(Nc2nccc(N(C)c3ccc4c(C)n(C)nc4c3)n2)cc1S(N)(=O)=O` [pazopanib], the “maximum tolerated dose of pazopanib” value [1] is given as “not reached”, the “decrease of time taken to reach Cmax (Tmax)” value [2] is given as 50% and the “increase of area under the curve (AUC)(0–72 h)” value [2] is given as 33%. The “increase of maximum plasma concentration (Cmax)” value [2] was 29%, the “disease control, patients” value [3] was 55% and the “grade 4 adverse events attributable to pazopanib” value ([4]; all 31 patients) was “no grade 4 adverse events”. The “most common grade 3 adverse events attributable to pazopanib” value ([4]; all cycles) was “hypertension, anaemia, fatigue, hypoalbuminaemia, and venous thromboembolism; also recorded: hypertension, anaemia, fatigue, hypoalbuminaemia, neutropenia, and diarrhoea”.

For `CNC(=O)c1cc(Oc2ccc(NC(=O)Nc3ccc(Cl)c(C(F)(F)F)c3)cc2)ccn1` [sorafenib], the activity as monotherapy [5] is listed as “modest activity”.

In the case of `CCN(CC)CCNC(=O)c1c(C)[nH]c(/C=C2\C(=O)Nc3ccc(F)cc32)c1C` [sunitinib], the activity as monotherapy [5] is listed as “modest activity”.

For bevacizumab, the “effect of addition of bevacizumab to chemotherapy” value [6] is given as “improvement of progression-free survival and overall survival”.
